# Reference: US4140785A, “N-(benzothienopyrazol)amide antirhinoviral agents” (E. I. Du Pont de Nemours and Company, priority 1978, dated 1979)
# Like-named read-outs stand apart in the source and are kept apart here.
# How the values were obtained:
# rhinovirus = test: In vitro activity against rhinovirus strains (overall); type: cell-based; settings: preferred compounds
# Rhinovirus type 3 = test: Plaque inhibition in HeLa cells, rhinovirus type 3; settings: for Plaque counts per plate: type 3, untreated 170; for MIC: Enterovirus
# Rhinovirus type 14 = test: Plaque inhibition in HeLa cells, rhinovirus type 14; settings: for Plaque counts per plate: type 14, untreated 194; for MIC: Enterovirus
# Rhinovirus type 39 = test: Plaque inhibition in HeLa cells, rhinovirus type 39; settings: for Plaque counts per plate: type 39, untreated 112; for MIC: Enterovirus
# Rhinovirus type 1A = test: Plaque inhibition in HeLa cells, rhinovirus type 1A; settings: for Plaque counts per plate: type 1A, untreated 211; for MIC: Enterovirus
# Rhinovirus type 15 = test: Plaque inhibition in HeLa cells, rhinovirus type 15; settings: for Plaque counts per plate: type 15, untreated 145; for MIC: Enterovirus
# Rhinovirus 1492 = test: Plaque inhibition in HeLa cells, rhinovirus 1492; settings: for Plaque counts per plate: 1492, untreated 255; for MIC: Enterovirus
# Rhinovirus 998 = test: Plaque inhibition in HeLa cells, rhinovirus 998; settings: for Plaque counts per plate: 998, untreated 190; for MIC: Enterovirus
# Rhinovirus type 51 = test: Plaque inhibition in HeLa cells, rhinovirus type 51; settings: for Plaque counts per plate: type 51, untreated 118; for MIC: Enterovirus
# [1] = system: influenza A virus strains; settings: prophylaxis and symptomatic treatment; cited from earlier work
# Rhinovirus 6579 = test: Plaque inhibition in HeLa cells, rhinovirus 6579; settings: Enterovirus, read-out: Minimum Inhibitory Concentration (MIC)
# Rhinovirus type 2 = test: Plaque inhibition in HeLa cells, rhinovirus type 2; settings: Enterovirus, read-out: Minimum Inhibitory Concentration (MIC)
# Rhinovirus 1425 = test: Plaque inhibition in HeLa cells, rhinovirus 1425; settings: Enterovirus, read-out: Minimum Inhibitory Concentration (MIC)
# Rhinovirus type 41 = test: Plaque inhibition in HeLa cells, rhinovirus type 41; settings: Enterovirus, read-out: Minimum Inhibitory Concentration (MIC)
# Rhinovirus 4005 = test: Plaque inhibition in HeLa cells, rhinovirus 4005; settings: Enterovirus, read-out: Minimum Inhibitory Concentration (MIC)
# Rhinovirus 1662 = test: Plaque inhibition in HeLa cells, rhinovirus 1662; settings: Enterovirus, read-out: Minimum Inhibitory Concentration (MIC)
# Rhinovirus type 5 = test: Plaque inhibition in HeLa cells, rhinovirus type 5; settings: Enterovirus, read-out: Minimum Inhibitory Concentration (MIC)
# Rhinovirus type 13 = test: Plaque inhibition in HeLa cells, rhinovirus type 13; settings: Enterovirus, read-out: Minimum Inhibitory Concentration (MIC)
# Rhinovirus type 1b = test: Plaque inhibition in HeLa cells, rhinovirus type 1B; settings: Enterovirus, read-out: Minimum Inhibitory Concentration (MIC)
# herpes simplex keratitis = settings: topical treatment; cited from earlier work
# smallpox = settings: cited from earlier work
# [2] = read-out: Minimum Inhibitory Concentration (MIC)
structure (smiles),measurement,setting,value
CCC(CC)(CC)C(=O)Nc1nn(C)c2c1sc1ccccc12,Level of antirhinovirus activity,rhinovirus,high level of antirhinovirus activity
same,Plaque counts per plate,Rhinovirus type 3; 0.1 μg/ml,119 Plaque counts per plate
same,Plaque counts per plate,Rhinovirus type 3; 0.5 μg/ml,0 Plaque counts per plate
same,Plaque counts per plate,Rhinovirus type 3; 1.0 μg/ml,0 Plaque counts per plate
same,Plaque counts per plate,Rhinovirus type 3; 2.0 μg/ml,0 Plaque counts per plate
same,MIC,Rhinovirus type 3,0.5 µg/mL
same,Plaque counts per plate,Rhinovirus type 14; 0.1 μg/ml,125 Plaque counts per plate
same,Plaque counts per plate,Rhinovirus type 14; 0.5 μg/ml,20 Plaque counts per plate
same,Plaque counts per plate,Rhinovirus type 14; 1.0 μg/ml,0 Plaque counts per plate
same,Plaque counts per plate,Rhinovirus type 14; 2.0 μg/ml,0 Plaque counts per plate
same,MIC,Rhinovirus type 14,1 µg/mL
same,Plaque counts per plate,Rhinovirus type 39; 0.1 μg/ml,65 Plaque counts per plate
same,Plaque counts per plate,Rhinovirus type 39; 0.5 μg/ml,4 Plaque counts per plate
same,Plaque counts per plate,Rhinovirus type 39; 1.0 μg/ml,0 Plaque counts per plate
same,Plaque counts per plate,Rhinovirus type 39; 2.0 μg/ml,0 Plaque counts per plate
same,MIC,Rhinovirus type 39,1 µg/mL
same,Plaque counts per plate,Rhinovirus type 1A; 0.1 μg/ml,153 Plaque counts per plate
same,Plaque counts per plate,Rhinovirus type 1A; 0.5 μg/ml,60 Plaque counts per plate
same,Plaque counts per plate,Rhinovirus type 1A; 1.0 μg/ml,4 Plaque counts per plate
same,Plaque counts per plate,Rhinovirus type 1A; 2.0 μg/ml,0 Plaque counts per plate
same,MIC,Rhinovirus type 1A,2 µg/mL
same,Plaque counts per plate,Rhinovirus type 15; 0.1 μg/ml,61 Plaque counts per plate
same,Plaque counts per plate,Rhinovirus type 15; 0.5 μg/ml,0 Plaque counts per plate
same,Plaque counts per plate,Rhinovirus type 15; 1.0 μg/ml,0 Plaque counts per plate
same,Plaque counts per plate,Rhinovirus type 15; 2.0 μg/ml,0 Plaque counts per plate
same,MIC,Rhinovirus type 15,0.5 µg/mL
same,Plaque counts per plate,Rhinovirus 1492; 0.1 μg/ml,140 Plaque counts per plate
same,Plaque counts per plate,Rhinovirus 1492; 0.5 μg/ml,12 Plaque counts per plate
same,Plaque counts per plate,Rhinovirus 1492; 1.0 μg/ml,0 Plaque counts per plate
same,Plaque counts per plate,Rhinovirus 1492; 2.0 μg/ml,0 Plaque counts per plate
same,MIC,Rhinovirus 1492,1 µg/mL
same,Plaque counts per plate,Rhinovirus 998; 0.1 μg/ml,103 Plaque counts per plate
same,Plaque counts per plate,Rhinovirus 998; 0.5 μg/ml,0 Plaque counts per plate
same,Plaque counts per plate,Rhinovirus 998; 1.0 μg/ml,0 Plaque counts per plate
same,Plaque counts per plate,Rhinovirus 998; 2.0 μg/ml,0 Plaque counts per plate
same,MIC,Rhinovirus 998,0.5 µg/mL
same,Plaque counts per plate,Rhinovirus type 51; 0.1 μg/ml,211 Plaque counts per plate
same,Plaque counts per plate,Rhinovirus type 51; 0.5 μg/ml,28 Plaque counts per plate
same,Plaque counts per plate,Rhinovirus type 51; 1.0 μg/ml,0 Plaque counts per plate
same,Plaque counts per plate,Rhinovirus type 51; 2.0 μg/ml,0 Plaque counts per plate
same,MIC,Rhinovirus type 51,1 µg/mL
Cl.NC12CC3CC(CC(C3)C1)C2 [1-aminoadamantane hydrochloride],Effectiveness against illness caused by influenza A virus,[1],effective for the prophylaxis and symptomatic treatment of illness caused by influenza A virus strains
"Cn1nc(NC(=O)C(C)(C)C)c2sc3ccccc3c21 [2,2-dimethyl-N-(1-methyl-1H-(1)benzothieno[3,2-c]pyrazol-3-yl)propanamide]",Level of antirhinovirus activity,rhinovirus,high level of antirhinovirus activity
Cn1nc(NC(=O)CC2CCCC2)c2sc3ccccc3c21 [Example 62],MIC,Rhinovirus 6579,2 µg/mL
same,MIC,Rhinovirus type 2,2 µg/mL
same,MIC,Rhinovirus type 3; [2],4 µg/mL
same,MIC,Rhinovirus type 14; [2],6 µg/mL
same,MIC,Rhinovirus type 39; [2],2 µg/mL
same,MIC,Rhinovirus 1425,2 µg/mL
same,MIC,Rhinovirus type 41,2 µg/mL
same,MIC,Rhinovirus type 1A; [2],6 µg/mL
same,MIC,Rhinovirus 4005,2 µg/mL
same,MIC,Rhinovirus 1662,8 µg/mL
same,MIC,Rhinovirus type 15; [2],5 µg/mL
same,MIC,Rhinovirus 1492; [2],2 µg/mL
same,MIC,Rhinovirus type 5,2 µg/mL
same,MIC,Rhinovirus 998; [2],2 µg/mL
same,MIC,Rhinovirus type 13,2 µg/mL
same,MIC,Rhinovirus type 51; [2],8 µg/mL
same,MIC,Rhinovirus type 1b,2 µg/mL
"CCC(CC)C(=O)Nc1nn(C)c2c1sc1ccccc12 [Example 63, 2-ethyl-N-(1-methyl-1H-(1)benzothieno[3,2-c]pyrazol-3-yl)butanamide]",Level of antirhinovirus activity,rhinovirus,high level of antirhinovirus activity
same,MIC,Rhinovirus 6579,2 µg/mL
same,MIC,Rhinovirus type 2,2 µg/mL
same,MIC,Rhinovirus type 3; [2],0.5 µg/mL
same,MIC,Rhinovirus type 14; [2],1 µg/mL
same,MIC,Rhinovirus type 39; [2],0.5 µg/mL
same,MIC,Rhinovirus 1425,2 µg/mL
same,MIC,Rhinovirus type 41,2 µg/mL
same,MIC,Rhinovirus type 1A; [2],1 µg/mL
same,MIC,Rhinovirus 4005,2 µg/mL
same,MIC,Rhinovirus 1662,1 µg/mL
same,MIC,Rhinovirus type 15; [2],0.5 µg/mL
same,MIC,Rhinovirus 1492; [2],1 µg/mL
same,MIC,Rhinovirus type 5,2 µg/mL
same,MIC,Rhinovirus 998; [2],1 µg/mL
same,MIC,Rhinovirus type 13,2 µg/mL
same,MIC,Rhinovirus type 51; [2],1 µg/mL
same,MIC,Rhinovirus type 1b,2 µg/mL
CC(C)CC(=O)Nc1nn(C)c2c1sc1ccccc12 [Example 64],MIC,Rhinovirus 6579,2 µg/mL
same,MIC,Rhinovirus type 2,2 µg/mL
same,MIC,Rhinovirus type 3; [2],1 µg/mL
same,MIC,Rhinovirus type 14; [2],1 µg/mL
same,MIC,Rhinovirus type 39; [2],1 µg/mL
same,MIC,Rhinovirus 1425,4 µg/mL
same,MIC,Rhinovirus type 41,2 µg/mL
same,MIC,Rhinovirus type 1A; [2],1 µg/mL
same,MIC,Rhinovirus 4005,2 µg/mL
same,MIC,Rhinovirus 1662,2 µg/mL
same,MIC,Rhinovirus type 15; [2],1 µg/mL
same,MIC,Rhinovirus 1492; [2],2 µg/mL
same,MIC,Rhinovirus type 5,2 µg/mL
same,MIC,Rhinovirus 998; [2],1 µg/mL
same,MIC,Rhinovirus type 13,2 µg/mL
same,MIC,Rhinovirus type 51; [2],2 µg/mL
same,MIC,Rhinovirus type 1b,2 µg/mL
"CC(=O)Nc1nn(C)c2c1sc1ccccc12 [Example 65, N-(1-methyl-1H-(1)benzothieno[3,2-c]pyrazol-3-yl)-acetamide]",MIC,Rhinovirus 6579,5 µg/mL
same,MIC,Rhinovirus type 2,4 µg/mL
same,MIC,Rhinovirus type 3; [2],4 µg/mL
same,MIC,Rhinovirus type 14; [2],8 µg/mL
same,MIC,Rhinovirus type 39; [2],8 µg/mL
same,MIC,Rhinovirus 1425,2 µg/mL
same,MIC,Rhinovirus type 41,2 µg/mL
same,MIC,Rhinovirus type 1A; [2],8 µg/mL
same,MIC,Rhinovirus 4005,2 µg/mL
same,MIC,Rhinovirus 1662,10 µg/mL
same,MIC,Rhinovirus type 15; [2],5 µg/mL
same,MIC,Rhinovirus 1492; [2],8 µg/mL
same,MIC,Rhinovirus type 5,4 µg/mL
same,MIC,Rhinovirus 998; [2],8 µg/mL
same,MIC,Rhinovirus type 13,5 µg/mL
same,MIC,Rhinovirus type 51; [2],8 µg/mL
same,MIC,Rhinovirus type 1b,6 µg/mL
Cn1nc(NC(=O)c2cccnc2)c2sc3ccccc3c21 [Example 66],MIC,Rhinovirus 6579,2 µg/mL
same,MIC,Rhinovirus type 2,2 µg/mL
same,MIC,Rhinovirus type 3; [2],6 µg/mL
same,MIC,Rhinovirus type 14; [2],8 µg/mL
same,MIC,Rhinovirus type 39; [2],2 µg/mL
same,MIC,Rhinovirus 1425,2 µg/mL
same,MIC,Rhinovirus type 41,2 µg/mL
same,MIC,Rhinovirus type 1A; [2],5 µg/mL
same,MIC,Rhinovirus 4005,2 µg/mL
same,MIC,Rhinovirus 1662,8 µg/mL
same,MIC,Rhinovirus type 15; [2],4 µg/mL
same,MIC,Rhinovirus 1492; [2],6 µg/mL
same,MIC,Rhinovirus type 5,2 µg/mL
same,MIC,Rhinovirus 998; [2],2 µg/mL
same,MIC,Rhinovirus type 13,2 µg/mL
same,MIC,Rhinovirus type 51; [2],6 µg/mL
same,MIC,Rhinovirus type 1b,2 µg/mL
O=c1[nH]c(=O)n([C@H]2C[C@H](O)[C@@H](CO)O2)cc1I [Idoxuridine],Effectiveness in herpes simplex keratitis,herpes simplex keratitis,effective for the topical treatment of herpes simplex keratitis
CN1C(=O)/C(=N\NC(N)=S)c2ccccc21 [Methisazone],Effectiveness for prevention of smallpox,smallpox,effective for the prevention of smallpox
Nc1ncnc2c1ncn2[C@@H]1O[C@H](CO)[C@@H](O)[C@@H]1O [adenine arabinoside],Effectiveness in herpes simplex keratitis,herpes simplex keratitis,effective for the topical treatment of herpes simplex keratitis
